Experiments:
[1] = system: Human intestinal endothelial cells; assay: WST-1 cell viability assay, intestinal endothelial cells; format: cell-based; conditions: Endothelial cell, 72 h, three days
Procedure: (§1) The effect of the compounds selected using the screening assay on the viability of several tumor cell lines as well as diploid cell lines and cell strains was studied. Cells were plated in 96-well plates at a density of 10,000 cells/100 μL/well and were incubated overnight. The following day compound dilutions ranging from 0 to 40 μM were applied to the cells in triplicate and the cells were incubated with the compounds for three days. Cell viability was assayed using the WST-1 cell proliferation reagent (Roche Diagnostics, Germany) The WST-1 reagent was diluted 1:10 in cell culture media and 100 μL of the reagent dilution was applied onto cells followed by 1 hour incubation at +37° C. The specific absorbance was measured at 450 nm and a reference absorbance was measured at 690 nm. […] Analysis for Protein Levels

[2] = system: BC3-luc pleural effusion lymphoma cells; assay: Orthotopic xenograft model of pleural effusion lymphoma; format: in vivo; conditions: NOD-SCID mice
Procedure: An orthotopic xenograft model of pleural effusion lymphoma was used to assess the anti-tumor activities of compounds 15, 21 and 22. Female NOD-SCID mice (Charles River, France) were injected intraperitoneally with pleural effusion lymphoma cells carrying a stable NF-kappaB regulated luciferase reporter (BC3-luc cells) (Keller et al., 2006). The tumors were allowed to establish for three days after which the mice were imaged and divided into treatment (groups 4-5 mice per group). The compound treatments were initiated on day four. The mice received 2 mg/kg (cmp21) or 20 mg/kg (cmp15 and 22) every other/third day for seven times via i.p. injections, control mice received DMSO only. The mice were imaged prior to each compound injection. Imaging was carried out with Xenogen In Vivo Imaging System (IVIS), D-luciferin (Synchem OHG, Germany) was injected intraperitoneally (100 mg/kg) 10-15 min prior to each imaging. Quantitation was done using Igor Pro Carbon analysis software, bioluminescence was quantitated and plotted as total flux within a given ROI.

In vivo toxicity tests = conditions: mice; for toxicity by weight curves, macroscopical pathologies, hematoxylin-eosin staining of tissues: 9 doses/3 weeks
Procedure: Acute and chronic toxicity of the compounds was tested on FVB/N mice. Female mice of 4-6 weeks old were purchased from Harlan and 2 animals were used per compound dose. The mice were injected intraperitoneally with the compounds three times a week for three weeks in 30 microL DMSO. Two animals received vehicle only (=30 μL DMSO). The animals were weighed prior to injections and were monitored for any signs of toxicity, distress or unusual behaviour. The animals were sacrificed three days after receiving the final injection. The liver, kidney, spleen, small intestine and thymus were excised and fixed in 4% paraformaldehyde overnight, and processed into paraffin-blocks. Haematoxylin-eosin staining (HE staining) of the tissues was performed using standard immunohistological techniques.

WS-1 diploid fibroblast = assay: WST-1 cell viability assay, WS-1; format: cell-based, human; conditions: Homo sapiens, 72 h, three days
Procedure: as §1

A375 melanoma (WTp53) = assay: WST-1 cell viability assay, A375; format: cell-based; conditions: Homo sapiens, A-375, 72 h; A375 melanoma (WTp53), three days, WST-1
Procedure: as §1

[3] = system: p53, Mdm2 and p21 levels in A375 melanoma cells; assay: Immunoblotting and immunofluorescence for p53, Mdm2 and p21 levels; format: cell-based; conditions: A375, 24 hours
Procedure: To study the effect of compounds on endogenous protein levels, A375 melanoma cells were treated with the compounds for 24 hours. Cellular lysates were prepared in lysis buffer containing 0.5% NP-40 with proteinase inhibitors. Protein (20-30 μg) was separated by sodium dodecyl sulphate-polyacrylamide gel electrophoresis (SDS-PAGE) followed by transfer to PVDF membrane (Immobilon™-P, Millipore, Bedford, Mass., USA). Immunoblotting was carried out using DO-1 antibody for p53, 2A10 for Mdm2 and anti-p21 (Becton Dickinson) to detect p21, followed by secondary antibodies conjugated with horseradish peroxidase (p53) or biotin followed by streptavidin-horseradish peroxidase (Mdm2 and p21) after which proteins were detected with enhanced chemiluminescence (ECL, Amersham Life Sciences). Equal protein loading was verified using GAPDH (p9.B.88, Europa Bioproducts Ltd, UK) as a protein loading control.
Immunofluorescence staining was carried out to determine the correct localisation of p53 and to detect H2AX phosphorylation indicative of genotoxic stress. Cells were treated with the compounds and fixed in paraformaldehyde (3.5 PFA, 25 min RT). The coverslips were permeabilised in 0.5% NP-40 and blocked in 3% bovine serum albumin (BSA). p53 was detected by staining with FL-393 antibody (Santa Cruz, 1:50, 1 h at +37° C.) followed by Alexa-594 conjugated secondary antibody (Molecular Probes, 1:200, 1 h at +37° C.), phospho-H2AX was detected by staining with anti-H2AX (P-Ser-139) antibody (Upstate, 1:200 1 h at +37° C.) followed by Alexa-488 conjugated secondary antibody (Molecular Probes, 1:200, 1 h at +37° C.). Nuclei were stained with Hoechst 33342. Images were captured using the Zeiss Axioplan fluorescence microscope equipped with Zeiss AxioCam HRc CCD-camera and AxioVision 4.5 software using 40×, NA=0,75 objective, Chroma 31000, Chroma41001 and 41004 filters for Hoechst, Alexa488 and Alexa594, respectively.

RPMI7951 (MUTp53) = assay: WST-1 cell viability assay, RPMI-7951; format: cell-based; conditions: Homo sapiens, RPMI-7951, 72 h, three days
Procedure: as §1

[4] = system: normal human primary melanocytes; assay: WST-1 cell viability assay, melanocytes; format: cell-based; conditions: Homo sapiens, 72 h, Melanocyte, three days
Procedure: as §1

A375 melanoma cells = assay: Flow cytometry cell cycle and apoptosis analysis; format: cell-based
Procedure: Cell cycle analysis and cellular apoptosis was assayed with flow cytometry (LSR, Beckton Dickinson). Cells were treated with the compounds and both floating and adherent cells were harvested and fixed in 70% ethanol at −20° C. followed by staining of DNA with propidium iodide. A total of 10,000 counts were collected and data was analysed using ModFit LT 3.1 software. Cells present in sub-G1 population were regarded as apoptotic.

SMILES	IC50 [1] [µM]	inhibition of tumor cell growth (bioluminescence) ([2]; 2 mg/kg i.p. seven times)	acute or chronic toxicities based on histological HE-stainings (In vivo toxicity tests; i.p., 0.5, 1, 2 mg/kg three times a week for three weeks)	toxicity by weight curves, macroscopical pathologies, hematoxylin-eosin staining of tissues (In vivo toxicity tests; i.p., 0.5, 1, 2 mg/kg)	IC50 (WS-1 diploid fibroblast) [µM]	IC50 (A375 melanoma (WTp53)) [µM]	Mdm2 induction ([3]; 0.5 μM)	induction of p21 cyclin kinase inhibitor ([3]; 0.5 μM)	IC50 (RPMI7951 (MUTp53)) [µM]	IC50 [4] [µM]	cell cycle / apoptosis phenotype (A375 melanoma cells; A375, 0.1 μM (three days) and 0.5 μM (six days))	inhibition of tumor cell growth (bioluminescence) ([2]; 20 mg/kg i.p. seven times)	acute or chronic toxicities based on histological HE-stainings (In vivo toxicity tests; i.p., 5, 10 and 20 mg/kg three times a week for three weeks)	toxicity by weight curves, macroscopical pathologies, hematoxylin-eosin staining of tissues (In vivo toxicity tests; i.p., 5, 10 and 20 mg/kg)	Mdm2 induction ([3]; 5 μM)	cell cycle / apoptosis phenotype (A375 melanoma cells; A375, three days at 10 μM or six days at 5 μM)
CN(C)CCNC(=O)c1cccn2c(=O)c3cc4ccccc4cc3nc12 [Compound 21]	2.7	did not have any effect	No acute or chronic toxicities were observed	did not show any apparent toxicity	1.9	0.7	most prominent	most prominent	3	> 40	G2-phase arrest and apoptosis					
Cc1cc(C)c2nc3nc(C)cc(C)c3c(N)c2c1 [Compound 22, 2,4,7,9-tetramethylbenzo[b]-1,8-naphthyridin-5-amine]	14.5				11.5	4.6			13.3	32.2		noticeable inhibition of the tumor cell growth	No acute or chronic toxicities were observed	did not show any apparent toxicity	most prominent	G2-phase arrest and apoptosis
